18 compounds from patent US10730868B2, “Bicyclic heteroaryl substituted compounds” (BRISTOL-MYERS SQUIBB COMPANY, priority 2016, dated 2020) can be followed below.

pIC50: −log10 of the molar value.

The target of the experiment is PAR4 (Homo sapiens (Human), UniProt Q96RI0). Put plainly: PAR4 FLIPR assay (antagonism of agonist-peptide-induced calcium mobilization). It counts as cell-based. The following applies: H-Ala-Phe(4-F)-Pro-Gly-Trp-Leu-Val-Lys-Asn-Gly-NH2-induced intracellular calcium mobilization, PAR4-expressing HEK293 cells; read-out: PAR4 FLTPR assay (IC50). The method, boiled down: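 HEK293 cells stably expressing human PAR4 (also endogenous PAR1), loaded with fluorescent calcium indicator in HBSS/20 mM HEPES; compounds added at 0.17% DMSO, read on FDSS for agonism, then 30 min RT before H-Ala-Phe(4-F)-peptide agonist challenge. Potency from 11-point concentration-response curves.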
PAR4, sequence (Q96RI0 18-385): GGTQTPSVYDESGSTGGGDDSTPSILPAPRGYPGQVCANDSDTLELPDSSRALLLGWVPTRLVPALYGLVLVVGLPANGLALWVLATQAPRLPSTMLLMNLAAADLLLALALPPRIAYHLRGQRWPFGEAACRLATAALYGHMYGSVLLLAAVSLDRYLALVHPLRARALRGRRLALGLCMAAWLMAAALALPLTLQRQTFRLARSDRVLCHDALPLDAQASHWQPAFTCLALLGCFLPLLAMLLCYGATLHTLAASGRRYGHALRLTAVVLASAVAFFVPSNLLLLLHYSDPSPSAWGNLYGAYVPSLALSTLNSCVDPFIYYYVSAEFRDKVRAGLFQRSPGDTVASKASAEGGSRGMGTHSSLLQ
With `COc1cnc2c(-c3nc4cc(F)c(O[C@H]5CCC[C@H]5OC(=O)Nc5cnc(C(N)=O)nc5)cc4s3)cc(C)cc2n1` [Example 52, (1R,2S)-2-((5-fluoro-2-(2-methoxy-7-methylquinoxalin-5-yl)benzo[d]thiazol-6-yl)oxy)cyclopentyl (2-carbamoylpyrimidin-5-yl)carbamate], the pIC50 was 8.60.

For `COc1cnc2c(-c3nc4cc(F)c(O[C@H]5CC[C@H]5O)cc4s3)cc(C)cc2n1` [Example 60, cis-2-((5-fluoro-2-(2-methoxy-7-methylquinoxalin-5-yl)benzo[d]thiazol-6-yl)oxy)cyclobutanol (Homochiral)], the pIC50 was 8.01.

As for `COc1cnc2c(-c3nc4cc(F)c(O[C@H]5CC[C@H]5OC(=O)Nc5cnc(OC[C@@H](C)O)nc5)cc4s3)cc(C)cc2n1` [Example 63], the pIC50 is 8.13.

Turning to `COc1cnc2c(-c3nc4cc(F)c(O[C@H]5CC[C@H]5OC(=O)Nc5cnc(OCCO)nc5)cc4s3)cc(C)cc2n1` [Example 64], the negative logarithm of the IC50 (pIC50) was 8.72.

As for `COc1cnc2c(-c3nc4cc(F)c(O[C@H]5CC[C@H]5OC(=O)Nc5cnc(CCO)nc5)cc4s3)cc(C)cc2n1` [Example 65], the pIC50 was 8.43.

As for `COc1cnc2c(-c3nc4cc(F)c(O[C@@H]5CC[C@@H]5OC(=O)Nc5cnc(C)nc5)cc4s3)cc(C)cc2n1` [Example 67], the pIC50 was 9.00.

Turning to `COc1cnc2c(-c3nc4cc(F)c(O[C@@H]5CC[C@@H]5OC(=O)Nc5cnc(OCCO)nc5)cc4s3)cc(C)cc2n1` [Example 68], the pIC50 was 9.12.

As for `COc1cnc2c(-c3nc4cc(F)c(O[C@H]5CC[C@H]5OC(=O)Nc5cnc(C)nc5)cc4s3)cc(C)cc2n1` [Example 69], the pIC50 was 8.92.

For `COc1cnc2c(-c3nc4cc(F)c(O[C@@H]5CC[C@@H]5OC(=O)Nc5cnc(CCO)nc5)cc4s3)cc(C)cc2n1` [Example 70], the negative-log IC50 (pIC50) is 8.05.

Consider `COc1ccc(NC(=O)O[C@H]2CC[C@H]2Oc2cc3sc(-c4cc(C)cc5nc(OC)cnc45)nc3cc2F)cn1` [Example 72], for which the pIC50 was 8.96.

For `COc1ccc(NC(=O)O[C@@H]2CC[C@@H]2Oc2cc3sc(-c4cc(C)cc5nc(OC)cnc45)nc3cc2F)cn1` [Example 73], the negative-log IC50 (pIC50) was 9.30.

On to `CCOc1cnc2c(-c3nc4cc(F)c(O[C@@H]5CC[C@@H]5OC(=O)Nc5cnc(OCCO)nc5)cc4s3)cc(C)cc2n1` [Example 75], for which the pIC50 was 8.23.

Turning to `COc1cnc2c(-c3nc4cc(F)c(O[C@@H]5CC[C@@H]5OC(=O)Nc5cnc(OCCO)nc5)cc4s3)cc(Cl)cc2c1` [Example 76], the pIC50 was 8.00.

In the case of `CCOc1cnc2c(-c3nc4cc(F)c(O[C@@H]5CC[C@@H]5OC(=O)Nc5cnc(OCCO)nc5)cc4s3)cc(Cl)cc2c1` [Example 77], the pIC50 is 8.04.

On to `COc1cnc2c(-c3nc4cc(F)c(O[C@@H]5CC[C@@H]5OC(=O)Nc5cnc(OCCO)nc5)cc4s3)cc(Cl)cc2n1` [Example 78], for which the pIC50 is 8.01.

On to `COc1cnc2c(-c3nc4cc(F)c(O[C@@H]5CC[C@@H]5OC(=O)Nc5cnc(OCCO)nc5)cc4s3)cc(C#N)cc2n1` [Example 80], for which the negative-log IC50 (pIC50) is 8.15.

For `COc1cnc2c(-c3nc4cc(F)c(O[C@@H]5CC[C@@H]5OC(=O)Nc5cnc(OCCO)nc5)cc4s3)cc(F)cc2c1` [Example 81], the negative logarithm of the IC50 (pIC50) was 8.04.

`COc1cnc2c(-c3nc4cc(F)c(O[C@H]5CC(F)(F)C[C@H]5OC(=O)Nc5cnc(C)nc5)cc4s3)cc(C)cc2n1` [Example 100]: the pIC50 was 8.89.
